Test results published in patent EP4464309A1, “ANTIDANDRUFF COMPOSITION COMPRISING 1-ACETOXYCHAVICOL ACETATE” (Analyticon Discovery GmbH, priority 2023, dated 2024).
Like-named read-outs stand apart in the source and are kept apart here.

Columns and labels:
[1] = Chemical stability of 2% solutions of 1-acetoxychavicol acetate on storage, followed by HPLC; type: physicochemical
Procedure: 1-acetoxychavicol acetate was dissolved as a 2% solution in water ethanol (70:30), an aqueous shampoo formulation, and in various vegetable oils. […] Table 1 Assessment of stability of 2% solutions of 1-acetoxychavicol acetate in wt.-percent over time

[2] = as above; type: physicochemical; details: solutions of up to 5 wt.-percent in vegetable oil, e.g. sunflower or rape seed oil; even at higher temperatures
[3] = cited from earlier work

C=CC(OC(C)=O)c1ccc(OC(C)=O)cc1 (centres unmarked) [1-acetoxychavicol acetate]
degradation ([1]; 2% solution in the shampoo formulation): fast degradation | degradation ([1]; 2% solution in vegetable oils, after 20 weeks of storage): no relevant degradation | degradation ([1]; 2% solution in water (water ethanol 70:30)): fast degradation | stability of 2% solutions of 1-acetoxychavicol acetate ([1]; Aq. Ethanol, storage time 0 w): 100 wt.-percent | stability of 2% solutions of 1-acetoxychavicol acetate ([1]; Aq. Ethanol, storage time 1 w): 80 wt.-percent | stability of 2% solutions of 1-acetoxychavicol acetate ([1]; Aq. Ethanol, storage time 2 w): 60 wt.-percent | stability of 2% solutions of 1-acetoxychavicol acetate ([1]; Aq. Ethanol, storage time 3 w): 50 wt.-percent | stability of 2% solutions of 1-acetoxychavicol acetate ([1]; Aq. Ethanol, storage time 4 w): 30 wt.-percent | stability of 2% solutions of 1-acetoxychavicol acetate ([1]; Aq. Ethanol, storage time 5 w): 20 wt.-percent | stability of 2% solutions of 1-acetoxychavicol acetate ([1]; Aq. Ethanol, storage time 6 w): 0 wt.-percent | stability of 2% solutions of 1-acetoxychavicol acetate ([1]; Aq. Ethanol, storage time 7 w): 0 wt.-percent | stability of 2% solutions of 1-acetoxychavicol acetate ([1]; Aq. Ethanol, storage time 8 w): 0 wt.-percent | stability of 2% solutions of 1-acetoxychavicol acetate ([1]; Aq. Ethanol, storage time 9 w): 0 wt.-percent | stability of 2% solutions of 1-acetoxychavicol acetate ([1]; Aq. Ethanol, storage time 10 w): 0 wt.-percent | stability of 2% solutions of 1-acetoxychavicol acetate ([1]; Aq. Ethanol, storage time 15 w): 0 wt.-percent | stability of 2% solutions of 1-acetoxychavicol acetate ([1]; Aq. Ethanol, storage time 20 w): 0 wt.-percent | stability of 2% solutions of 1-acetoxychavicol acetate ([1]; HO Rape seed oil, storage time 0 w): 100 wt.-percent | stability of 2% solutions of 1-acetoxychavicol acetate ([1]; HO Rape seed oil, storage time 1 w): 100 wt.-percent | stability of 2% solutions of 1-acetoxychavicol acetate ([1]; HO Rape seed oil, storage time 2 w): 100 wt.-percent | stability of 2% solutions of 1-acetoxychavicol acetate ([1]; HO Rape seed oil, storage time 3 w): 100 wt.-percent | stability of 2% solutions of 1-acetoxychavicol acetate ([1]; HO Rape seed oil, storage time 4 w): 100 wt.-percent | stability of 2% solutions of 1-acetoxychavicol acetate ([1]; HO Rape seed oil, storage time 5 w): 100 wt.-percent | stability of 2% solutions of 1-acetoxychavicol acetate ([1]; HO Rape seed oil, storage time 6 w): 100 wt.-percent | stability of 2% solutions of 1-acetoxychavicol acetate ([1]; HO Rape seed oil, storage time 7 w): 100 wt.-percent | stability of 2% solutions of 1-acetoxychavicol acetate ([1]; HO Rape seed oil, storage time 8 w): 100 wt.-percent | stability of 2% solutions of 1-acetoxychavicol acetate ([1]; HO Rape seed oil, storage time 9 w): 100 wt.-percent | stability of 2% solutions of 1-acetoxychavicol acetate ([1]; HO Rape seed oil, storage time 10 w): 100 wt.-percent | stability of 2% solutions of 1-acetoxychavicol acetate ([1]; HO Rape seed oil, storage time 15 w): 100 wt.-percent | stability of 2% solutions of 1-acetoxychavicol acetate ([1]; HO Rape seed oil, storage time 20 w): 100 wt.-percent | stability of 2% solutions of 1-acetoxychavicol acetate ([1]; HO Sunflower oil, storage time 0 w): 100 wt.-percent | stability of 2% solutions of 1-acetoxychavicol acetate ([1]; HO Sunflower oil, storage time 1 w): 100 wt.-percent | stability of 2% solutions of 1-acetoxychavicol acetate ([1]; HO Sunflower oil, storage time 2 w): 100 wt.-percent | stability of 2% solutions of 1-acetoxychavicol acetate ([1]; HO Sunflower oil, storage time 3 w): 100 wt.-percent | stability of 2% solutions of 1-acetoxychavicol acetate ([1]; HO Sunflower oil, storage time 4 w): 100 wt.-percent | stability of 2% solutions of 1-acetoxychavicol acetate ([1]; HO Sunflower oil, storage time 5 w): 100 wt.-percent | stability of 2% solutions of 1-acetoxychavicol acetate ([1]; HO Sunflower oil, storage time 6 w): 100 wt.-percent | stability of 2% solutions of 1-acetoxychavicol acetate ([1]; HO Sunflower oil, storage time 7 w): 100 wt.-percent | stability of 2% solutions of 1-acetoxychavicol acetate ([1]; HO Sunflower oil, storage time 8 w): 100 wt.-percent | stability of 2% solutions of 1-acetoxychavicol acetate ([1]; HO Sunflower oil, storage time 9 w): 100 wt.-percent | stability of 2% solutions of 1-acetoxychavicol acetate ([1]; HO Sunflower oil, storage time 10 w): 100 wt.-percent | stability of 2% solutions of 1-acetoxychavicol acetate ([1]; HO Sunflower oil, storage time 15 w): 100 wt.-percent | stability of 2% solutions of 1-acetoxychavicol acetate ([1]; HO Sunflower oil, storage time 20 w): 90 wt.-percent | stability of 2% solutions of 1-acetoxychavicol acetate ([1]; Olive oil, storage time 0 w): 100 wt.-percent | stability of 2% solutions of 1-acetoxychavicol acetate ([1]; Olive oil, storage time 1 w): 100 wt.-percent | stability of 2% solutions of 1-acetoxychavicol acetate ([1]; Olive oil, storage time 2 w): 100 wt.-percent | stability of 2% solutions of 1-acetoxychavicol acetate ([1]; Olive oil, storage time 3 w): 100 wt.-percent | stability of 2% solutions of 1-acetoxychavicol acetate ([1]; Olive oil, storage time 4 w): 100 wt.-percent | stability of 2% solutions of 1-acetoxychavicol acetate ([1]; Olive oil, storage time 5 w): 100 wt.-percent | stability of 2% solutions of 1-acetoxychavicol acetate ([1]; Olive oil, storage time 6 w): 100 wt.-percent | stability of 2% solutions of 1-acetoxychavicol acetate ([1]; Olive oil, storage time 7 w): 95 wt.-percent | stability of 2% solutions of 1-acetoxychavicol acetate ([1]; Olive oil, storage time 8 w): 95 wt.-percent | stability of 2% solutions of 1-acetoxychavicol acetate ([1]; Olive oil, storage time 9 w): 95 wt.-percent | stability of 2% solutions of 1-acetoxychavicol acetate ([1]; Olive oil, storage time 10 w): 90 wt.-percent | stability of 2% solutions of 1-acetoxychavicol acetate ([1]; Olive oil, storage time 15 w): 90 wt.-percent | stability of 2% solutions of 1-acetoxychavicol acetate ([1]; Olive oil, storage time 20 w): 85 wt.-percent | stability of 2% solutions of 1-acetoxychavicol acetate ([1]; Peanut oil, storage time 0 w): 100 wt.-percent | stability of 2% solutions of 1-acetoxychavicol acetate ([1]; Peanut oil, storage time 1 w): 100 wt.-percent | stability of 2% solutions of 1-acetoxychavicol acetate ([1]; Peanut oil, storage time 2 w): 100 wt.-percent | stability of 2% solutions of 1-acetoxychavicol acetate ([1]; Peanut oil, storage time 3 w): 100 wt.-percent | stability of 2% solutions of 1-acetoxychavicol acetate ([1]; Peanut oil, storage time 4 w): 100 wt.-percent | stability of 2% solutions of 1-acetoxychavicol acetate ([1]; Peanut oil, storage time 5 w): 100 wt.-percent | stability of 2% solutions of 1-acetoxychavicol acetate ([1]; Peanut oil, storage time 6 w): 100 wt.-percent | stability of 2% solutions of 1-acetoxychavicol acetate ([1]; Peanut oil, storage time 7 w): 95 wt.-percent | stability of 2% solutions of 1-acetoxychavicol acetate ([1]; Peanut oil, storage time 8 w): 95 wt.-percent | stability of 2% solutions of 1-acetoxychavicol acetate ([1]; Peanut oil, storage time 9 w): 95 wt.-percent | stability of 2% solutions of 1-acetoxychavicol acetate ([1]; Peanut oil, storage time 10 w): 90 wt.-percent | stability of 2% solutions of 1-acetoxychavicol acetate ([1]; Peanut oil, storage time 15 w): 90 wt.-percent | stability of 2% solutions of 1-acetoxychavicol acetate ([1]; Peanut oil, storage time 20 w): 85 wt.-percent | stability of 2% solutions of 1-acetoxychavicol acetate ([1]; Sesame oil, storage time 0 w): 100 wt.-percent | stability of 2% solutions of 1-acetoxychavicol acetate ([1]; Sesame oil, storage time 1 w): 100 wt.-percent | stability of 2% solutions of 1-acetoxychavicol acetate ([1]; Sesame oil, storage time 2 w): 100 wt.-percent | stability of 2% solutions of 1-acetoxychavicol acetate ([1]; Sesame oil, storage time 3 w): 100 wt.-percent | stability of 2% solutions of 1-acetoxychavicol acetate ([1]; Sesame oil, storage time 4 w): 100 wt.-percent | stability of 2% solutions of 1-acetoxychavicol acetate ([1]; Sesame oil, storage time 5 w): 100 wt.-percent | stability of 2% solutions of 1-acetoxychavicol acetate ([1]; Sesame oil, storage time 6 w): 100 wt.-percent | stability of 2% solutions of 1-acetoxychavicol acetate ([1]; Sesame oil, storage time 7 w): 95 wt.-percent | stability of 2% solutions of 1-acetoxychavicol acetate ([1]; Sesame oil, storage time 8 w): 95 wt.-percent | stability of 2% solutions of 1-acetoxychavicol acetate ([1]; Sesame oil, storage time 9 w): 95 wt.-percent | stability of 2% solutions of 1-acetoxychavicol acetate ([1]; Sesame oil, storage time 10 w): 90 wt.-percent | stability of 2% solutions of 1-acetoxychavicol acetate ([1]; Sesame oil, storage time 15 w): 90 wt.-percent | stability of 2% solutions of 1-acetoxychavicol acetate ([1]; Sesame oil, storage time 20 w): 85 wt.-percent | stability of 2% solutions of 1-acetoxychavicol acetate ([1]; Shampoo, storage time 0 w): 100 wt.-percent | stability of 2% solutions of 1-acetoxychavicol acetate ([1]; Shampoo, storage time 1 w): 80 wt.-percent | stability of 2% solutions of 1-acetoxychavicol acetate ([1]; Shampoo, storage time 2 w): 60 wt.-percent | stability of 2% solutions of 1-acetoxychavicol acetate ([1]; Shampoo, storage time 3 w): 55 wt.-percent | stability of 2% solutions of 1-acetoxychavicol acetate ([1]; Shampoo, storage time 4 w): 50 wt.-percent | stability of 2% solutions of 1-acetoxychavicol acetate ([1]; Shampoo, storage time 5 w): 40 wt.-percent | stability of 2% solutions of 1-acetoxychavicol acetate ([1]; Shampoo, storage time 6 w): 35 wt.-percent | stability of 2% solutions of 1-acetoxychavicol acetate ([1]; Shampoo, storage time 7 w): 30 wt.-percent | stability of 2% solutions of 1-acetoxychavicol acetate ([1]; Shampoo, storage time 8 w): 25 wt.-percent | stability of 2% solutions of 1-acetoxychavicol acetate ([1]; Shampoo, storage time 9 w): 20 wt.-percent | stability of 2% solutions of 1-acetoxychavicol acetate ([1]; Shampoo, storage time 10 w): 10 wt.-percent | stability of 2% solutions of 1-acetoxychavicol acetate ([1]; Shampoo, storage time 15 w): 0 wt.-percent | stability of 2% solutions of 1-acetoxychavicol acetate ([1]; Shampoo, storage time 20 w): 0 wt.-percent | stability ([1]; solution in rapeseed oil): particularly stable | stability ([1]; solution in sunflower oil): particularly stable | stability [2]: remains stable over months | stability ([3]; in aqueous solution): instable | time stable ([3]; in vegetable oil, at up to 120°C): at least 1 h | stability ([3]; solution with 30-40% ethanol, neutral pH, room temperature): stable for several month | stability ([3]; under thermal treatment, e.g. distillation): instable
